Test system: 282377-053-R-J1-PDC complex spheroid viability
Assay: Anticancer human tumor 282377-053-R-J1-PDC patient-derived colon adenocarcinoma cell line growth inhibition [POLQ]
Conditions: for IC50: curve of first compound; for viability, T/C: stronger effect = lower value
Method: Multicellular complex tumor spheroid response to Polymerase (POL) inhibitors (novobiocin, ART-558, RP6685) in combination with a variety of drugs and investigational agents in selected tumor cell lines
The POL inhibitors (novobiocin, ART-558, and RP6685) were evaluated both individually and in combination with standard of care and investigational anticancer small molecules within a complex spheroid model of solid tumors. . Complex spheroids include a stromal component modeled by human endothelial cells (HUVEC) and fibroblasts modeled by human mesenchymal stem cells (MSCs). The concentration ranges selected for each drug and investigational agent were based upon clinically achievable concentrations if the clinical Cmax of the agent was known.
Compounds. The drugs and investigational agents: novobiocin (NSC847541), ART-558 (NSC835418), RP-6685 (NSC848927), peposertib (NSC802822), ceralasertib (NSC780249), elimusertib (NSC800525), camonsertib (NSC841442), AZD-1390 (NSC803789), olaparib (NSC753686), talazoparib (NSC767125), rucaparib (NSC756644), sotorasib (NSC818433), MRTX-1133 (NSC836407), SN-38 (NSC673596), topotecan (NSC609699), epotoside (NSC141540), doxorubicin (NSC123127), gemcitabine (NSC613327), 5-fluorouracil (NSC19893), paclitaxel (NSC125973), vemurafenib (NSC761431), MSA-2 (NSC828583), SN-011 (NSC837082), adavosertib (NSC754352), prexasertib (NSC758257), carboplatin (NSC241240) and oxaliplatin (NSC266046), were obtained from the National Cancer Institute (NCI) Developmental Therapeutics Program Chemical Repository (21). The FDA-approved anticancer drug set is available from the Developmental Therapeutics Program at https://dtp.cancer.gov/organization/dscb/obtaining/. […] The stock solutions were prepared in dimethyl sulfoxide (DMSO, Sigma-Aldrich, St. Louis, MO, cat. D2650), except for the platinum compounds which were prepared in saline (Quality Biological, Gaithersburg, MD, cat. 114-055-101), at 800-fold the tested concentration and stored at -70 degrees C prior to their use. All drugs and investigational agents were tested over a range starting from a high concentration at or near the clinical Cmax and decreasing in half-log increments. If the clinical Cmax for an agent had not been determined, the highest concentration tested was 10 microM, except for SN-38, which was tested at a high concentration of 1 microM.
Cell Culture. All cells were maintained in an incubator at 37 degrees C and 5% CO2 with 95% humidity. The PDC lines were cultured according to standard operating procedures established by the NCI PDMR (https://pdmr.cancer.gov). Table 3 of the manuscript, lists the cell lines along with the number of the three cell types plated to form the mct-spheroids and media for tumor cell growth. After thawing, all PDC lines, except 997537-175-T-J1-PDC and 415267-285-R-J2-PDC, were cultured in Matrigel-coated flasks prepared with a working solution of 1X Ham's F-12 nutrient mix, without supplementation (Thermo Fisher Scientific, cat. 11765054), 100 U/mL penicillin-streptomycin (Thermo Fisher Scientific, cat. 15140122), and 2.5% Matrigel (Corning Inc., Corning, NY, cat. 354248) for the first three passages. The two PDC lines 997537-175-T-J1-PDC and 415267-285-R-J2-PDC were cultured on uncoated flasks. The 857933-349-R-J2-PDC line was cultured in 6C/Colon 1B media containing advanced DMEM/F-12 (Thermo Fisher Scientific, cat. 12634028), 10 mM HEPES (Thermo Fisher Scientific, cat. 15630080), 1X GlutaMAX supplement (Thermo Fisher Scientific, cat. 35050061), 0.1 mg/mL primocin (InvivoGen, San Diego, CA, cat. ant-pm-2), 10% defined fetal bovine serum, heat inactivated (HyClone Laboratories Inc., Logan, UT, cat. SH30070.03HI), 50% L-WRN conditioned media (ATCC, cat. CRL-3276), 1.25 mM N-Acetyl-L-cysteine (Sigma-Aldrich, cat. A9165), 10 mM nicotinamide (Sigma-Aldrich, cat. N0636), 1X B-27 supplement (Thermo Fisher Scientific, cat. 17504044), 1X N-2 supplement (Thermo Fisher Scientific, cat. […]

[1] = second compound 0.0316 µM, first compound 0.00316 µM
[2] = second compound 0.0316 µM, first compound 0.01 µM
[3] = second compound 0.0316 µM, first compound 0.0316 µM
[4] = second compound 0.0316 µM, first compound 0.1 µM
[5] = second compound 0.1 µM, first compound 0.00316 µM
[6] = second compound 0.1 µM, first compound 0.01 µM
[7] = second compound 0.1 µM, first compound 0.0316 µM
[8] = second compound 0.1 µM, first compound 0.1 µM
[9] = second compound 0.316 µM, first compound 0.00316 µM
[10] = second compound 0.316 µM, first compound 0.01 µM
[11] = second compound 0.316 µM, first compound 0.0316 µM
[12] = second compound 0.316 µM, first compound 0.1 µM
[13] = second compound 1 µM, first compound 0.00316 µM
[14] = second compound 1 µM, first compound 0.01 µM
[15] = second compound 1 µM, first compound 0.0316 µM
[16] = second compound 1 µM, first compound 0.1 µM
[17] = second compound 3.16 µM, first compound 0.00316 µM
[18] = second compound 3.16 µM, first compound 0.01 µM
[19] = second compound 3.16 µM, first compound 0.0316 µM
[20] = second compound 3.16 µM, first compound 0.1 µM
[21] = second compound 10 µM, first compound 0.00316 µM
[22] = second compound 10 µM, first compound 0.01 µM
[23] = second compound 10 µM, first compound 0.0316 µM
[24] = second compound 10 µM, first compound 0.1 µM
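Note: spheroids exposed to compounds for seven days.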
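Throughout, for viability, T/C: 100% = DMSO vehicle control viability.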

Question: Which IC50 (second compound 0.0316 µM) does the source give for COc1cccc(OCCCN)c1-c1cc(Nc2cnc(C#N)cn2)n[nH]1 + COC1C(OC(N)=O)C(O)C(Oc2ccc3c(O)c(NC(=O)c4ccc(O)c(CC=C(C)C)c4)c(=O)oc3c2C)OC1(C)C here?
Answer: 124 nM

Question: And the IC50 (second compound 0.1 µM)?
Answer: 56.2 nM

Question: What about the IC50 (second compound 0.316 µM) of the same compound?
Answer: 92.6 nM

Question: And the IC50 (second compound 1 µM)?
Answer: 111 nM

Question: What about the IC50 (second compound 3.16 µM) of the same compound?
Answer: 148 nM

Question: And the IC50 (second compound 10 µM)?
Answer: 93.6 nM

Question: What about the viability, T/C [1] of the same compound?
Answer: 117%

Question: And the viability, T/C [2]?
Answer: 106%

Question: And the viability, T/C [3]?
Answer: 92.7%

Question: What about the viability, T/C [4] of the same compound?
Answer: 51.4%

Question: And the viability, T/C (second compound 0.0316 µM, first compound 0.316 µM)?
Answer: 37.4%

Question: What about the viability, T/C (second compound 0.0316 µM, first compound 1 µM) of the same compound?
Answer: 29.5%

Question: What about the viability, T/C [5] of the same compound?
Answer: 106%

Question: And the viability, T/C [6]?
Answer: 114%

Question: What about the viability, T/C [7] of the same compound?
Answer: 63.9%

Question: What about the viability, T/C [8] of the same compound?
Answer: 46.2%

Question: What about the viability, T/C (second compound 0.1 µM, first compound 0.316 µM) of the same compound?
Answer: 34.9%

Question: What about the viability, T/C (second compound 0.1 µM, first compound 1 µM) of the same compound?
Answer: 25.6%

Question: What about the viability, T/C [9] of the same compound?
Answer: 118%

Question: And the viability, T/C [10]?
Answer: 83.9%

Question: What about the viability, T/C [11] of the same compound?
Answer: 75.2%

Question: And the viability, T/C [12]?
Answer: 46.4%

Question: What about the viability, T/C (second compound 0.316 µM, first compound 0.316 µM) of the same compound?
Answer: 31.5%

Question: And the viability, T/C (second compound 0.316 µM, first compound 1 µM)?
Answer: 30.9%

Question: And the viability, T/C [13]?
Answer: 111%

Question: And the viability, T/C [14]?
Answer: 76%

Question: What about the viability, T/C [15] of the same compound?
Answer: 67.9%

Question: What about the viability, T/C [16] of the same compound?
Answer: 60.6%

Question: And the viability, T/C (second compound 1 µM, first compound 0.316 µM)?
Answer: 31%

Question: And the viability, T/C (second compound 1 µM, first compound 1 µM)?
Answer: 33.2%

Question: And the viability, T/C [17]?
Answer: 87.9%

Question: What about the viability, T/C [18] of the same compound?
Answer: 84.3%

Question: What about the viability, T/C [19] of the same compound?
Answer: 74.3%

Question: What about the viability, T/C [20] of the same compound?
Answer: 49.3%

Question: What about the viability, T/C (second compound 3.16 µM, first compound 0.316 µM) of the same compound?
Answer: 46.9%

Question: And the viability, T/C (second compound 3.16 µM, first compound 1 µM)?
Answer: 30.5%

Question: What about the viability, T/C [21] of the same compound?
Answer: 99.8%

Question: And the viability, T/C [22]?
Answer: 81.4%

Question: And the viability, T/C [23]?
Answer: 70.1%

Question: What about the viability, T/C [24] of the same compound?
Answer: 47.4%

Question: What about the viability, T/C (second compound 10 µM, first compound 0.316 µM) of the same compound?
Answer: 34.6%

Question: And the viability, T/C (second compound 10 µM, first compound 1 µM)?
Answer: 26.5%

Question: How did the IC50 (second compound 0.0316 µM) turn out when Cn1ncnc1[C@H]1c2n[nH]c(=O)c3cc(F)cc(c23)N[C@@H]1c1ccc(F)cc1 + COC1C(OC(N)=O)C(O)C(Oc2ccc3c(O)c(NC(=O)c4ccc(O)c(CC=C(C)C)c4)c(=O)oc3c2C)OC1(C)C was run?
Answer: > 100 nM

Question: And the IC50 (second compound 0.1 µM)?
Answer: > 100 nM

Question: And the IC50 (second compound 0.316 µM)?
Answer: > 100 nM

Question: And the IC50 (second compound 1 µM)?
Answer: > 100 nM

Question: What about the IC50 (second compound 3.16 µM) of the same compound?
Answer: > 100 nM

Question: What about the IC50 (second compound 10 µM) of the same compound?
Answer: > 100 nM

Question: And the viability, T/C (second compound 0.0316 µM, first compound 0.000316 µM)?
Answer: 126%

Question: And the viability, T/C (second compound 0.0316 µM, first compound 0.001 µM)?
Answer: 108%

Question: And the viability, T/C [1]?
Answer: 101%

Question: What about the viability, T/C [2] of the same compound?
Answer: 98.1%

Question: What about the viability, T/C [3] of the same compound?
Answer: 103%

Question: And the viability, T/C [4]?
Answer: 97.4%

Question: What about the viability, T/C (second compound 0.1 µM, first compound 0.000316 µM) of the same compound?
Answer: 106%

Question: And the viability, T/C (second compound 0.1 µM, first compound 0.001 µM)?
Answer: 122%

Question: And the viability, T/C [5]?
Answer: 92%

Question: And the viability, T/C [6]?
Answer: 100%

Question: What about the viability, T/C [7] of the same compound?
Answer: 118%

Question: And the viability, T/C [8]?
Answer: 103%

Question: What about the viability, T/C (second compound 0.316 µM, first compound 0.000316 µM) of the same compound?
Answer: 97.5%

Question: What about the viability, T/C (second compound 0.316 µM, first compound 0.001 µM) of the same compound?
Answer: 81.7%

Question: What about the viability, T/C [9] of the same compound?
Answer: 85.4%

Question: And the viability, T/C [10]?
Answer: 111%

Question: What about the viability, T/C [11] of the same compound?
Answer: 102%

Question: What about the viability, T/C [12] of the same compound?
Answer: 132%

Question: What about the viability, T/C (second compound 1 µM, first compound 0.000316 µM) of the same compound?
Answer: 105%

Question: And the viability, T/C (second compound 1 µM, first compound 0.001 µM)?
Answer: 111%

Question: And the viability, T/C [13]?
Answer: 111%

Question: What about the viability, T/C [14] of the same compound?
Answer: 90.5%

Question: And the viability, T/C [15]?
Answer: 118%

Question: And the viability, T/C [16]?
Answer: 98.1%

Question: What about the viability, T/C (second compound 3.16 µM, first compound 0.000316 µM) of the same compound?
Answer: 88.2%

Question: What about the viability, T/C (second compound 3.16 µM, first compound 0.001 µM) of the same compound?
Answer: 106%

Question: And the viability, T/C [17]?
Answer: 92.1%

Question: What about the viability, T/C [18] of the same compound?
Answer: 99.5%

Question: What about the viability, T/C [19] of the same compound?
Answer: 107%

Question: What about the viability, T/C [20] of the same compound?
Answer: 126%

Question: And the viability, T/C (second compound 10 µM, first compound 0.000316 µM)?
Answer: 112%

Question: And the viability, T/C (second compound 10 µM, first compound 0.001 µM)?
Answer: 98.5%

Question: And the viability, T/C [21]?
Answer: 104%

Question: And the viability, T/C [22]?
Answer: 102%

Question: And the viability, T/C [23]?
Answer: 105%

Question: What about the viability, T/C [24] of the same compound?
Answer: 105%

From PubChem BioAssay AID1963852 (Molecular Pharmacology Branch, DTP, NCI, 2024)
